Where a name gives a salt, the structure may show the parent alone.
Columns and labels:
[1] = Particle size distribution (volume diameter D10/D50/D90, span); format: physicochemical; conditions: for Final PSD after ripening D10 / Final PSD after ripening D50 / Final PSD after ripening D90: after ripening at 40, 43 or 48 °C; for D10 (values across lots) / span (values across lots): range over the lots of the example
Method: Particle size is expressed in terms of volume diameter, which is used to provide a dimensional description of particles which are non-spherical. “Volume diameter” refers to the diameter of a sphere with equal volume of the non-spherical particle. Particle size can be measured according to methods well known in the art, including a laser diffraction technique that correlates light scattering to particle volume on which effective length or effective diameter is calculated.
Particle size distribution is expressed in terms of D50, D10, D90 and span. “Span” is a measure for particle size distribution. It is calculated according to the following equation: […]
“D50”, also known as the median diameter, corresponds to the value under which 50% of the particles has a lower volume diameter. “D90” corresponds to the value under which 90% of the particles has a lower volume diameter. “D10” corresponds to the value under which 10% of the particles has a lower volume diameter.

[2] = Ring shear test: flow function coefficient and cohesion (Jenike-Johanson RST-XS, ASTM D6773-16); format: physicochemical; conditions: neat particles; for average cohesion: four lots (FIG. 3); for average FFc (flow function coefficient): four lots, pre-load 3 kPa (FIG. 2)
From the text: “Flow function”, “flow function coefficient”, or FFc is a parameter commonly used to rank the flowability of a particulate sample, which could be a sample of neat API particles or a blend containing API particles plus additives. • Powder flowability is ranked as follows: • FFc<1 not flowing • 1<FFc<2 very cohesive • 2<FFc<4 Cohesive • 4<FFc<10 easy flowing • FFc>10 free flowing The measurement of FFc and Cohesion outlined below follows the procedures described in ASTM D6773-16. […] To test FFc and Cohesion, a particulate sample is added to a commercially available ring shear testing device, such as a Jenike-Johanson RST-XS ring shear tester. Such testing is familiar to the person of ordinary skill in the art. In general, the powder is loaded into an annular trough and a consolidated powder bed is formed. A normal stress (σp) is applied to the consolidated powder bed and the pre-shear stress (ζp) is measured. The normal stress is applied as a vertical load through an annular lid. The shear cell rotates relative to the lid and the torque necessary for shearing is measured. Repeat measurements with a series of values of normal stress are applied. When the measured shear stress values (Y-axis) are plotted as function of applied normal stress values (X-axis), the linear relation between them is called the yield locus. The yield locus line can be used to determine a unique relationship between normal stress and shear stress; this is known as a Mohr circle. The yield locus line represents a tangential line of all Mohr circles. The outer larger radius circle corresponds to pre-shear conditions (σp, ζp) and defines the Major Principal Stress, MPS (σ1). The smaller radius circle defines the Unconfined Yield Stress, UYS (σc). Flow function coefficient or FFc is the ratio of Major Principle Stress (MPS) to the Unconfined Yield Strength (UYS): Cohesion is the propensity for particles within a sample to self-associate or “stick together”. The ring shear tester measures cohesion at the same time that it measure FFc. The intercept of yield locus line at zero normal stress (i.e., where the extrapolation of the yield locus line intercepts the Y axis) is known as powder cohesion, and is expressed in Pascal (Pa) units. Lower cohesion is associated with better powder flowability. Further, cohesion predicts how particulate samples will behave when stored, for example when stored in a silo. […] The flow function coefficient (FFc) was measured as described above to quantify the flow properties of neat diroximel fumarate particles of Example 1 (dry milled) and Example 2 (wet milled and ripened). […]

[3] = dry milled API, representative commercial lot
[4] = dry milled API, (D90 − D10)/D50
[5] = final PSD after ripening, (D90 − D10)/D50
[6] = final product, wet milled and ripened in IPAC/IPA, 43 °C

| SMILES | Final PSD after ripening D10 [1] [μm] | Final PSD after ripening D50 [1] [μm] | Final PSD after ripening D90 [1] [μm] | PSD after wet milling D10 ([1]; before ripening) [μm] | PSD after wet milling D50 ([1]; before ripening) [μm] | PSD after wet milling D90 ([1]; before ripening) [μm] | D10 [1, 3] [μm] | D50 [1, 3] [μm] | D90 [1, 3] [μm] | Span [1, 4] | Span [1, 5] | D10 (values across lots) [1] | span (values across lots) [1] | average cohesion [2] [Pa] | average FFc (flow function coefficient) [2] | median particle size D50, in-process after wet milling ([1]; IPAC/IPA slurry, after 23 volume turnovers, before ripening) [microns] | Span ([1]; final product, wet milled and ripened in IPAC/IPA) | D10 [1, 6] [μm] | D50 [1, 6] [μm] | D90 [1, 6] [μm] |
| --- | --- | --- | --- | --- | --- | --- | --- | --- | --- | --- | --- | --- | --- | --- | --- | --- | --- | --- | --- | --- |
| COC(=O)/C=C/C(=O)OCCN1C(=O)CCC1=O [compound 1, diroximel fumarate] | 37.2 | 89.3 | 162.5 | 11.6 | 53.0 | 155 | 17 | 96 | 347 | 3.4 | 1.4 | – | – | – | – | – | – | – | – | – |
| COC(=O)/C=C/C(=O)OCCN1C(=O)CCC1=O [compound 4, diroximel fumarate] | – | – | – | – | – | – | 16 | 95 | 302 | 3.0 | – | – | – | – | – | – | – | – | – | – |
| COC(=O)/C=C/C(=O)OCCN1C(=O)CCC1=O [Example 2, diroximel fumarate] | – | – | – | – | – | – | – | – | – | – | – | 37.2-41.0 μm | 1.4-1.7 | 219 | about 4 | – | – | – | – | – |
| COC(=O)/C=C/C(=O)OCCN1C(=O)CCC1=O [compound 3, diroximel fumarate] | 41.0 | 111.9 | 222.9 | 9.15 | 35.2 | 116 | 18 | 101 | 307 | 2.9 | 1.6 | – | – | – | – | – | – | – | – | – |
| COC(=O)/C=C/C(=O)OCCN1C(=O)CCC1=O [Example 1, diroximel fumarate] | – | – | – | – | – | – | – | – | – | – | – | 16-18 μm | 2.9-3.4 | 270 | less than 4 | – | – | – | – | – |
| COC(=O)/C=C/C(=O)OCCN1C(=O)CCC1=O [Example 6, diroximel fumarate] | – | – | – | – | – | – | – | – | – | – | – | – | – | – | – | 43 | 1.4 | 40 | 92 | 173 |
| COC(=O)/C=C/C(=O)OCCN1C(=O)CCC1=O [compound 2, diroximel fumarate] | 40.7 | 96.1 | 204.5 | 12.4 | 66.3 | 179 | 17 | 106 | 347 | 3.1 | 1.7 | – | – | – | – | – | – | – | – | – |

Reference: US20240400506A1, “DIROXIMEL FUMARATE PARTICLES HAVING IMPROVED FLOW PROPERTIES AND METHODS OF MAKING SAME” (BIOGEN MA INC., priority 2021, published 2024)
